Each block holds one compound with its values, some of them ahead of it.
Tested on: 361931-004-R-J1-PDC multicell spheroid viability
Assay: Anticancer human tumor 361931-004-R-J1-PDC patient-derived colon adenocarcinoma cell line growth inhibition [PI3K]
Conditions: for viability, T/C: stronger effect = lower value
Outline: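 Multi-cell spheroids combine tumor cells with HUVEC and human MSCs, treated with targeted agents alone or with inavolisib, alpelisib, duvelisib or copanlisib. Concentrations fall in half-log steps from at or near clinical Cmax, or from 10 microM where Cmax is unknown; viability read-out.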

[1] = curve of first compound, second compound 0.00316 µM
[2] = curve of first compound, second compound 0.01 µM
[3] = curve of first compound, second compound 0.0316 µM
[4] = curve of first compound, second compound 0.1 µM
[5] = curve of first compound, second compound 0.316 µM
[6] = curve of first compound, second compound 1 µM
[7] = second compound 0.00316 µM, first compound 0.0316 µM
[8] = second compound 0.00316 µM, first compound 0.1 µM
[9] = second compound 0.00316 µM, first compound 0.316 µM
[10] = second compound 0.00316 µM, first compound 1 µM
[11] = second compound 0.00316 µM, first compound 3.16 µM
[12] = second compound 0.00316 µM, first compound 10 µM
[13] = second compound 0.01 µM, first compound 0.0316 µM
[14] = second compound 0.01 µM, first compound 0.1 µM
[15] = second compound 0.01 µM, first compound 0.316 µM
[16] = second compound 0.01 µM, first compound 1 µM
[17] = second compound 0.01 µM, first compound 3.16 µM
[18] = second compound 0.01 µM, first compound 10 µM
[19] = second compound 0.0316 µM, first compound 0.0316 µM
[20] = second compound 0.0316 µM, first compound 0.1 µM
[21] = second compound 0.0316 µM, first compound 0.316 µM
[22] = second compound 0.0316 µM, first compound 1 µM
[23] = second compound 0.0316 µM, first compound 3.16 µM
[24] = second compound 0.0316 µM, first compound 10 µM
[25] = second compound 0.1 µM, first compound 0.0316 µM
[26] = second compound 0.1 µM, first compound 0.1 µM
[27] = second compound 0.1 µM, first compound 0.316 µM
[28] = second compound 0.1 µM, first compound 1 µM
[29] = second compound 0.1 µM, first compound 3.16 µM
[30] = second compound 0.1 µM, first compound 10 µM
[31] = second compound 0.316 µM, first compound 0.0316 µM
[32] = second compound 0.316 µM, first compound 0.1 µM
[33] = second compound 0.316 µM, first compound 0.316 µM
[34] = second compound 0.316 µM, first compound 1 µM
[35] = second compound 0.316 µM, first compound 3.16 µM
[36] = second compound 0.316 µM, first compound 10 µM
[37] = second compound 1 µM, first compound 0.0316 µM
[38] = second compound 1 µM, first compound 0.1 µM
[39] = second compound 1 µM, first compound 0.316 µM
[40] = second compound 1 µM, first compound 1 µM
[41] = second compound 1 µM, first compound 3.16 µM
[42] = second compound 1 µM, first compound 10 µM
[43] = curve of first compound, second compound 3.16 µM
[44] = curve of first compound, second compound 10 µM
[45] = second compound 3.16 µM, first compound 0.0316 µM
[46] = second compound 3.16 µM, first compound 0.1 µM
[47] = second compound 3.16 µM, first compound 0.316 µM
[48] = second compound 3.16 µM, first compound 1 µM
[49] = second compound 3.16 µM, first compound 3.16 µM
[50] = second compound 3.16 µM, first compound 10 µM
[51] = second compound 10 µM, first compound 0.0316 µM
[52] = second compound 10 µM, first compound 0.1 µM
[53] = second compound 10 µM, first compound 0.316 µM
[54] = second compound 10 µM, first compound 1 µM
[55] = second compound 10 µM, first compound 3.16 µM
[56] = second compound 10 µM, first compound 10 µM
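Also: spheroids exposed to agents for seven days before readout.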

SMILES: CC(Cn1ccc(-c2ccc(C#N)c(Cl)c2)n1)NC(=O)c1cc(C(C)O)[nH]n1 (configuration not stated) + Cc1nc(NC(=O)N2CCCC2C(N)=O)sc1-c1ccnc(C(C)(C)C(F)(F)F)c1
IC50 [3]: > 10 µM
IC50 [4]: > 10 µM
IC50 [5]: > 10 µM
IC50 [6]: > 10 µM
IC50 [43]: > 10 µM
IC50 [44]: > 10 µM
viability, T/C [19]: 102%
viability, T/C [20]: 102%
viability, T/C [21]: 96.3%
viability, T/C [22]: 100%
viability, T/C [23]: 107%
viability, T/C [24]: 98.7%
viability, T/C [25]: 105%
viability, T/C [26]: 105%
viability, T/C [27]: 99.1%
viability, T/C [28]: 113%
viability, T/C [29]: 109%
viability, T/C [30]: 101%
viability, T/C [31]: 98.5%
viability, T/C [32]: 113%
viability, T/C [33]: 95.6%
viability, T/C [34]: 105%
viability, T/C [35]: 98.9%
viability, T/C [36]: 91.5%
viability, T/C [37]: 95.4%
viability, T/C [38]: 102%
viability, T/C [39]: 87.4%
viability, T/C [40]: 96%
viability, T/C [41]: 97%
viability, T/C [42]: 84.2%
viability, T/C [45]: 87.4%
viability, T/C [46]: 81.3%
viability, T/C [47]: 90.7%
viability, T/C [48]: 83.6%
viability, T/C [49]: 94.4%
viability, T/C [50]: 79.4%
viability, T/C [51]: 68%
viability, T/C [52]: 68%
viability, T/C [53]: 72.8%
viability, T/C [54]: 62.4%
viability, T/C [55]: 59.8%
viability, T/C [56]: 53%

SMILES: CC(Cn1ccc(-c2ccc(C#N)c(Cl)c2)n1)NC(=O)c1cc(C(C)O)[nH]n1 (configuration not stated)
viability, T/C (compound 0.0316 µM): 104% [middle of 4 runs]
viability, T/C (compound 0.1 µM): 97.2% [middle of 4 runs]
viability, T/C (compound 0.316 µM): 105% [middle of 4 runs]
viability, T/C (compound 1 µM): 104% [middle of 4 runs]
viability, T/C (compound 3.16 µM): 102% [middle of 4 runs]
viability, T/C (compound 10 µM): 106% [middle of 4 runs]
IC50 (curve of compound): > 10 µM

SMILES: CC1(C)CCC(CN2CCN(c3ccc(C(=O)NS(=O)(=O)c4ccc(NCC5CCOCC5)c([N+](=O)[O-])c4)c(Oc4cnc5[nH]ccc5c4)c3)CC2)=C(c2ccc(Cl)cc2)C1 + Cc1nc(NC(=O)N2CCCC2C(N)=O)sc1-c1ccnc(C(C)(C)C(F)(F)F)c1
IC50 [3]: 4.14 µM
IC50 [4]: 4.3 µM
IC50 [5]: 4.19 µM
IC50 [6]: 3.89 µM
IC50 [43]: 2.71 µM
IC50 [44]: 1.52 µM
viability, T/C [19]: 108%
viability, T/C [20]: 100%
viability, T/C [21]: 111%
viability, T/C [22]: 99.7%
viability, T/C [23]: 64.9%
viability, T/C [24]: 1.71%
viability, T/C [25]: 106%
viability, T/C [26]: 100%
viability, T/C [27]: 108%
viability, T/C [28]: 99.1%
viability, T/C [29]: 67.8%
viability, T/C [30]: 1.27%
viability, T/C [31]: 104%
viability, T/C [32]: 107%
viability, T/C [33]: 96%
viability, T/C [34]: 93%
viability, T/C [35]: 65.6%
viability, T/C [36]: 1.32%
viability, T/C [37]: 87.1%
viability, T/C [38]: 102%
viability, T/C [39]: 84.8%
viability, T/C [40]: 83.1%
viability, T/C [41]: 61.2%
viability, T/C [42]: 0.97%
viability, T/C [45]: 85.7%
viability, T/C [46]: 77%
viability, T/C [47]: 78.2%
viability, T/C [48]: 80%
viability, T/C [49]: 45.4%
viability, T/C [50]: 1.07%
viability, T/C [51]: 65.1%
viability, T/C [52]: 67.7%
viability, T/C [53]: 60.3%
viability, T/C [54]: 62.2%
viability, T/C [55]: 29%
viability, T/C [56]: 1.43%

Now from value to compound, other results behind:

IC50 [1]: 4.62 µM
IC50 [2]: 4.73 µM
IC50 [3]: 4.48 µM
IC50 [4]: 1.57 µM
IC50 [5]: 0.0487 µM
IC50 [6]: < 0.0316 µM
SMILES: CCCS(=O)(=O)Nc1ccc(F)c(C(=O)c2c[nH]c3ncc(-c4ccc(Cl)cc4)cc23)c1F + COc1c(OCCCN2CCOCC2)ccc2c3n(c(=NC(=O)c4cnc(N)nc4)nc12)CCN3
viability, T/C [7]: 102%
viability, T/C [8]: 104%
viability, T/C [9]: 93.7%
viability, T/C [10]: 89.8%
viability, T/C [11]: 72.3%
viability, T/C [12]: 7.97%
viability, T/C [13]: 107%
viability, T/C [14]: 93.1%
viability, T/C [15]: 94%
viability, T/C [16]: 88.1%
viability, T/C [17]: 75.6%
viability, T/C [18]: 6.49%
viability, T/C [19]: 93%
viability, T/C [20]: 87.3%
viability, T/C [21]: 77.5%
viability, T/C [22]: 83.3%
viability, T/C [23]: 69.4%
viability, T/C [24]: 6.55%
viability, T/C [25]: 89.1%
viability, T/C [26]: 72.5%
viability, T/C [27]: 67.4%
viability, T/C [28]: 53%
viability, T/C [29]: 47.6%
viability, T/C [30]: 5.33%
viability, T/C [31]: 54.1%
viability, T/C [32]: 45.5%
viability, T/C [33]: 28.9%
viability, T/C [34]: 27.4%
viability, T/C [35]: 17.8%
viability, T/C [36]: 3.29%
viability, T/C [37]: 20.6%
viability, T/C [38]: 21.3%
viability, T/C [39]: 14%
viability, T/C [40]: 9.73%
viability, T/C [41]: 7.59%
viability, T/C [42]: 2.7%

IC50 [3]: 1.32 µM
IC50 [4]: 0.922 µM
IC50 [5]: 0.793 µM
IC50 [6]: 0.715 µM
IC50 [43]: 0.628 µM
IC50 [44]: 0.411 µM
SMILES: Cn1ncc(Cl)c1-c1cc(C(=O)NC(CN)Cc2cccc(F)c2)sc1Cl (configuration not stated) + Cc1nc(NC(=O)N2CCCC2C(N)=O)sc1-c1ccnc(C(C)(C)C(F)(F)F)c1
viability, T/C [19]: 98.5%
viability, T/C [20]: 95%
viability, T/C [21]: 83.4%
viability, T/C [22]: 53.4%
viability, T/C [23]: 34.3%
viability, T/C [24]: 19.7%
viability, T/C [25]: 96.3%
viability, T/C [26]: 95.3%
viability, T/C [27]: 71.8%
viability, T/C [28]: 48.8%
viability, T/C [29]: 29.8%
viability, T/C [30]: 20.5%
viability, T/C [31]: 100%
viability, T/C [32]: 87.5%
viability, T/C [33]: 77.2%
viability, T/C [34]: 40%
viability, T/C [35]: 28%
viability, T/C [36]: 14.5%
viability, T/C [37]: 89.8%
viability, T/C [38]: 93.7%
viability, T/C [39]: 72.3%
viability, T/C [40]: 39.1%
viability, T/C [41]: 28.8%
viability, T/C [42]: 16%
viability, T/C [45]: 77.4%
viability, T/C [46]: 87.1%
viability, T/C [47]: 67.8%
viability, T/C [48]: 35.1%
viability, T/C [49]: 29.2%
viability, T/C [50]: 11.6%
viability, T/C [51]: 77.2%
viability, T/C [52]: 69.1%
viability, T/C [53]: 54.9%
viability, T/C [54]: 34.2%
viability, T/C [55]: 20.6%
viability, T/C [56]: 7.91%

IC50 [1]: 3.3 µM
IC50 [2]: 2.88 µM
IC50 [3]: 2.37 µM
IC50 [4]: 1.68 µM
IC50 [5]: 0.161 µM
IC50 [6]: < 0.0316 µM
SMILES: CC(C)NCC(C(=O)N1CCN(c2ncnc3c2C(C)CC3O)CC1)c1ccc(Cl)cc1 (configuration not stated) + COc1c(OCCCN2CCOCC2)ccc2c3n(c(=NC(=O)c4cnc(N)nc4)nc12)CCN3
viability, T/C [7]: 102%
viability, T/C [8]: 97.8%
viability, T/C [9]: 95.2%
viability, T/C [10]: 86.9%
viability, T/C [11]: 50.9%
viability, T/C [12]: 19.5%
viability, T/C [13]: 99%
viability, T/C [14]: 100%
viability, T/C [15]: 90.9%
viability, T/C [16]: 78.7%
viability, T/C [17]: 46.9%
viability, T/C [18]: 26.6%
viability, T/C [19]: 95%
viability, T/C [20]: 89.8%
viability, T/C [21]: 94.2%
viability, T/C [22]: 70.6%
viability, T/C [23]: 43.6%
viability, T/C [24]: 25.7%
viability, T/C [25]: 89.9%
viability, T/C [26]: 76.9%
viability, T/C [27]: 71%
viability, T/C [28]: 60.5%
viability, T/C [29]: 39%
viability, T/C [30]: 21.9%
viability, T/C [31]: 58%
viability, T/C [32]: 52.3%
viability, T/C [33]: 47.4%
viability, T/C [34]: 36.8%
viability, T/C [35]: 34.5%
viability, T/C [36]: 21.3%
viability, T/C [37]: 26%
viability, T/C [38]: 21.8%
viability, T/C [39]: 20.8%
viability, T/C [40]: 20.4%
viability, T/C [41]: 17.6%
viability, T/C [42]: 11.6%

— PubChem BioAssay AID1963979 (Molecular Pharmacology Branch, DTP, NCI, 2024)
